Test results from ChEMBL document CHEMBL3507680, “University of Dundee, Gates Library screen for HepG2 cell viability”.

Assay: Human HepG2 cell viability assay in 384 well format
Assay type: toxicity, cell-based
Design: dose 125 nL, time 70.5 hour; cytotoxicity at 70.5 h: concentration not given beside the values
Conditions: HepG2 cells, read-out: Inhibition

SMILES | cytotoxicity at 70.5 h
O=C(NCC1CCC2(CC1)OCCO2)c1ccncc1F | -3.09%
Cc1nnc([C@@]23CCO[C@@H]2CCN(S(=O)(=O)c2ccccc2)C3)o1 | -7.57%
Cc1nc2c(c(N(C)C)n1)CCN(C(=O)CN1CCC(O)CC1)C2 | -6.35%
COc1cccc2c1CCCCN2C(=O)c1oc(C)nc1C | 0.154%
Cc1ccc(F)c(NS(=O)(=O)c2cc(C(=O)O)oc2C)c1 | -10%
CCCN1CCC(c2nc3ccc(NCc4cccnc4)cn3n2)CC1 | -10.3%
Cc1ncccc1Oc1cncc(C2CCCN2Cc2cncn2C)n1 (configuration not stated) | -2.83%
c1cnc2c(c1)cc([C@H]1CCCO1)n2CCN1CCOCC1 | -27.8%
Cc1nc(CN2CCCC2Cn2cncn2)nc2ccccc12 (configuration not stated) | -12.1%
COc1cc(C(N)=O)c(N(C)S(C)(=O)=O)cc1OC | -9.06%
CCSCC(C)NCc1cn2ccccc2n1 (configuration not stated) | -20.2%
O=C(O)c1ccccc1-n1cnc(CN2CCCCCC2)c1 | -1.66%
O=C(c1ccc(NC2CC2)nc1)N1CCCC(n2ccnc2)C1 (configuration not stated) | -12.9%
Cn1c(CN2CCOC(CNc3cccnn3)C2)nnc1C1CC1 (configuration not stated) | -2.31%
Cc1nc[nH]c1CN(Cc1ccccc1)C1CC(C)(C)NC(C)(C)C1 | 4.53%
C=Cc1cccc(CN(Cc2cnn(C)c2)C2CC2)c1 | -9.54%
CCc1nc(N2CCCN(c3ncccn3)CC2)c2cnn(C)c2n1 | -7.44%
O=C(O)[C@]12CCCN(Cc3ccsc3)C[C@H]1CN(c1ncccn1)C2 | 1.99%
Cc1c(NC(=O)c2cnc[nH]2)cccc1C(=O)NC(C)(C)C | -5.11%
COc1ccc(N(Cc2ccco2)C(=O)COC(C)C)cc1F | -7.47%
NC(=O)c1c[nH]nc1NCc1ccc2c(c1)OCO2 | -18.7%
Cc1cc(C)nc(N(C)CCn2ccnc2C)n1 | -2.15%
CCN(CCn1cccn1)Cc1nc(-c2cccs2)oc1C | -9.82%
CCN(CC)CCNC(=O)C(C)OCC(F)(F)F (configuration not stated) | -3.49%

SMILES | cytotoxicity at 70.5 h
Nc1nc(NCCO)cc(N2CCc3c([nH]c4ccccc34)C2)n1 | -7.97%
Cc1ncccc1OC1(C(=O)NCCNc2ccccc2)CCNCC1 | -5.68%
CC(Cc1cccnc1)Nc1ncnc2cccc(F)c12 (configuration not stated) | 1.44%
CC(=O)N1CCc2[nH]cnc2C12CCN(CC1CCOC1)CC2 (configuration not stated) | -5.5%
CCCS(=O)(=O)NC(C)C(=O)NCc1ccnc(N2CCCC2)c1 (configuration not stated) | -3.25%
Cc1ccc(NC2CCN(C(=O)c3cccc(F)c3F)CC2)nn1 | -13.7%
Cn1cc(C2CCCN2C(=O)COCCOc2ccccc2)cn1 (configuration not stated) | -4.67%
O=C(COCC(=O)N(c1ccccc1)c1ccccc1)N1CCCCC1 | 19.2%
N#Cc1c(F)cccc1N1CCCC(C(=O)Nc2nccs2)C1 (configuration not stated) | -19.5%
CCOCCNc1nc(-c2ccncc2)nc2c1CCNCC2 | -4.23%
Cc1ccc2c(n1)N(CCN(C)C)CCN(C(=O)c1ccco1)C2 | -4.83%
CCOc1ccc(CNCCCn2ccnc2)cc1OC | -13.2%
CCOCCN1CCN(Cc2nnc(C3CC3)o2)CC1CC (configuration not stated) | 13.5%
Cc1c[nH]nc1C1CCCN(C(=O)c2c(C)noc2C)C1 (configuration not stated) | -1.16%
CNC(=O)CN1CCOCC2(CCCN(Cc3cccnc3)C2)C1 (configuration not stated) | 4.24%
CCC(CNC(=O)Nc1cnn(CC)c1)N1CCCC1 (configuration not stated) | -3.1%
CN(C)CCNC(=O)[C@H]1C[C@@H]2CN(C(=O)NC3CCCC3)C[C@H]1O2 | 5.4%
O=C(NCC1(O)CCSCC1)c1nccc2ccccc12 | 13.5%
Cc1cccc(C2CCCCCN2C(=O)c2cn(CC(N)=O)nn2)c1 (configuration not stated) | -6.65%
Oc1cccc(CNCC2CCCO2)c1 (configuration not stated) | 10.4%
Cn1cc(C2CCCN2C(=O)CCCOCc2ccccc2)cn1 (configuration not stated) | 4.25%
Cn1ccnc1CN1CCCN(C(=O)c2ccc3c(c2)COC3)CC1 | 5.68%
CCCNC(=O)c1cccc2ncccc12 | -4.07%
